# Assay results as given in patent US5972951A, “Tetracyclic spiro compounds, process for their preparation and their use as 5HT1D receptor antagonists” (SmithKline Beecham plc, priority 1994, dated 1999).
# Target: T1, 5-HT 1D beta receptors (Homo sapiens, UniProt P28222)
# T1 construct: expressed in transfected cells; host or cells: CHO cells
# Test: 5-HT 1D beta binding ([3H]-5-HT displacement, homogenised CHO cells)
# Conditions: not given
# Protocol: 5-HT 1D ALPHA AND 5-HT 1D BETA BINDING.
# CHO cells expressing 5-HT 1D beta receptors (4×10^7 cells/ml) are homogenised in Tris buffer and stored in 1.5 ml aliquots.
# 0.4 ml of a cell suspension was incubated with [^3 H]-5-HT (4 nM) in Tris Mg HCl buffer (pH 7.7) and test drug, at 37° C. for 45 minutes. Each test drug was tested at 10 concentrations (0.01 mM to 0.3 nM final concentration), with non-specific binding defined using 0.01 mM 5-HT. The total assay volume was 0.5 ml. Incubation was stopped by rapid filtration using a Packard Filtermate (filters pre-soaked in 0.3% polyethylenimine) and radioactivity measured by Topcount scintillation counting. The pKi values were calculated from the IC50 generally by an iterative leas squares curve fitting programme.
# T1 sequence (P28222 whole entry): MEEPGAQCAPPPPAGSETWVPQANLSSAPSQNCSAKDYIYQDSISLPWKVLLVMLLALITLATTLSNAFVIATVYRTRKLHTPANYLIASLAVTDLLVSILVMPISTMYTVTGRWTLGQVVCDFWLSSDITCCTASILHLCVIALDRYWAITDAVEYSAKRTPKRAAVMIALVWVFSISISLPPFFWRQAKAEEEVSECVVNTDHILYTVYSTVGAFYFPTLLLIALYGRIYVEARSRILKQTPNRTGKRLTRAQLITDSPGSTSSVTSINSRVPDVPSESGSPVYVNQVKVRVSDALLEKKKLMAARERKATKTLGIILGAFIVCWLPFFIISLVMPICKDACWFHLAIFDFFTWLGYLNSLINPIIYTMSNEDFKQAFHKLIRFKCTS
row,Compound,Ki
1,"CCN1CCC2(CC1)COc1cc3c(cc12)N(C(=O)c1ccc(-c2ccc(-c4nnc(C)o4)cc2C)cc1)CC3 [Example 26, 1'-Ethyl-5-[2'-methyl-4'-(5-methyl-1,3,4-oxadiazol-2-yl)biphenyl-4-carbonyl]-2,3,6,7-tetrahydrospiro[furo[2,3-f]indole-3,4'-piperidine]]",< 10 nM

# Same assay, conditions: CHO cells expressing 5-HT 1D beta receptors; [3H]-5-HT (4 nM); 37° C. for 45 minutes; pKi calculated from the IC50; read-out: pKi values at 5-HT 1D beta receptors (converted)
row,Compound,Ki
1,"CCN1CCC2(CC1)COc1cc3c(cc12)N(C(=O)c1ccc(-c2ccc(-c4noc(C)n4)cc2C)cc1)CC3 [Example 4, 1'-Ethyl-5-(2'-methyl-4'-(5-methyl-1,2,4-oxadiazol-3-yl)biphenyl-4-carbonyl)-2,3,6,7-tetrahydrospiro[furo[2,3-f]indole-3,4'-piperidine]]",< 10 nM
2,"Cc1nnc(-c2ccc(-c3ccc(C(=O)N4CCc5cc6c(cc54)C4(CCN(C)CC4)CO6)cc3)c(C)c2)o1 [Example 5, 1'-Methyl-5-(2'-methyl-4'-(5-methyl-1,3,4-oxadiazol-2-yl)biphenyl-4-carbonyl)-2,3,6,7-tetrahydrospiro[furo[2,3-f]indole-3,4'-piperidine]]",< 10 nM
3,"Cc1cc(-c2noc(N(C)C)n2)ccc1-c1ccc(C(=O)N2CCc3cc4c(cc32)C2(CCN(C)CC2)CO4)cc1 [Example 6, 5-(4'-(5-Dimethylamino-1,2,4-oxadiazol-3-yl)-2'-methylbiphenyl-4-carbonyl)-1'-methyl-2,3,6,7-tetrahydrospiro[furo[2,3-f]indole-3,4'-piperidine]]",< 10 nM
4,"Cc1nc(-c2ccc(-c3ccc(C(=O)n4ccc5cc6c(cc54)C4(CCN(C)CC4)CO6)cc3)c(C)c2)no1 [Example 8, 2,3-Dihydro-1'-methyl-5-(2'-methyl-4'-(5-methyl-1,2,4-oxadiazol-3-yl)biphenyl-4-carbonyl)spiro[furo[2,3-f]indole-3,4'-piperidine)]",< 10 nM
5,"Cc1nnc(-c2ccc(-c3ccc(C(=O)n4ccc5cc6c(cc54)C4(CCN(C)CC4)CO6)cc3)c(C)c2)o1 [Example 18, 2,3-Dihydro-1'-methyl-5-(2'-methyl-4'-(5-methyl-1,3,4-oxadiazol-2-yl)biphenyl-4-carbonyl)spiro[furo[2,3-f]indole-3,4'-piperidine]]",< 10 nM
6,"COC(=O)c1ccc(C)c(-c2ccc(C(=O)N3CCc4cc5c(cc43)C3(CCN(C)CC3)CO5)cc2)c1 [Example 23, 5-(5'-Methoxycarbonyl-2'-methylbiphenyl-4-carbonyl)-1'-methyl-2,3,6,7-tetrahydrospiro[furo[2,3-f]indole-3,4'-piperidine]]",< 10 nM
7,"Cc1nnc(-c2ccc(-c3ccc(C(=O)N4CCc5cc6c(cc54)C4(CCO6)CCN(C)CC4)cc3)c(C)c2)o1 [Example 40, 1'-Methyl-6-[2°-methyl-4'-(5-methyl-1,3,4-oxadiazol-2-yl)biphenyl-4-carbonyl]-2,3,7,8-tetrahydrospiro[4H-pyrano[2,3-f]indole-4,4'-piperidine]]",< 10 nM
8,"Cc1cc(-c2ccc(-c3ccc(C(=O)N4CCc5cc6c(cc54)C4(CCN(C)CC4)CO6)cc3)c(C)c2)no1 [Example 45, 1'-Methyl-5-(2'-methyl-4'-(5-methylisoxazol-3-yl)biphenyl-4-carbonyl)-2,3,6,7-tetrahydrospiro[furo[2,3-f]indole-3,4'-piperidine]]",< 10 nM
9,"Cc1cc(-c2cnccn2)ccc1-c1ccc(C(=O)N2CCc3cc4c(cc32)C2(CCN(C)CC2)CO4)cc1 [Example 51, 1'-Methyl-5-(2'-methyl-4'-pyrazinylbiphenyl-4-carbonyl)-2,3,6,7-tetrahydrospiro[furo[2,3-f]indole-3,4'-piperidine]]",< 10 nM
10,"Cc1cc(-c2cncn2C)ccc1-c1ccc(C(=O)N2CCc3cc4c(cc32)C2(CCN(C)CC2)CO4)cc1 [Example 54, 1'-Methyl-5-[2'-methyl-4'-(1-methylimidazol-5-yl)biphenyl-4-carbonyl]-2,3,6,7-tetrahydrospiro[furo[2,3-f]indole-3,4'-piperidine]]",< 10 nM
11,"Cc1cc(-c2noc(CO)n2)ccc1-c1ccc(C(=O)N2CCc3cc4c(cc32)C2(CCN(C)CC2)CO4)cc1 [Example 55, 5-[4'-(5-Hydroxymethyl-1,2,4-oxadiazol-3-yl)-2'-methylbiphenyl-4-carbonyl]-1'-methyl-2,3,6,7-tetrahydrospiro[furo[2,3-f]indole-3,4'-piperidine]]",< 10 nM
12,"Cc1cc(-c2nccnn2)ccc1-c1ccc(C(=O)N2CCc3cc4c(cc32)C2(CCN(C)CC2)CO4)cc1 [Example 57, 1'-Methyl-5-[2'-methyl-4'-(1,2,4-triazin-3-yl)biphenyl-4-carbonyl]-2,3,6,7-tetrahydrospiro[furo[2,3-f]indole-3,4'-piperidine]]",< 10 nM
13,"CCOC(=O)Nc1ccc(-c2ccc(C(=O)N3CCc4cc5c(cc43)C3(CCN(CC)CC3)CO5)cc2)c(C)c1 [Example 66, 5-[4'-(Ethoxycarbonylamino)-2'-methylbiphenyl-4-carbonyl]-1'-ethyl-2,3,6,7-tetrahydrospiro[furo[2,3-f]indole-3,4'-piperidine]]",< 10 nM
